Results reported in patent publication US6461997B1, “Triazole sulfones having herbicidal activity” (Monsanto Technology LLC, priority 1999, dated 2002).

Experiments:
[1] = test system: CIRAR (canada thistle (seedling)); test: Pre-emergence herbicidal activity, warm season; format: in vivo, Cirsium arvense; conditions: GR80 = lowest tested rate (300, 100, 30, 10 g/ha) with 80% or greater inhibition; approx. 14 days after treating; 30/21° C.
Description: (§1) Tables 5 to 8 summarize results of tests conducted as described below to determine the pre-emergence herbicidal activity, in the form of a GR80 value, of illustrative compounds of this invention. […] Compounds of the invention were typically applied at rates of 300, 100, 30, and 10 g/ha. Where herbicidal activity was evident but 80% inhibition was not achieved at the highest rate tested, an asterisk (*) is shown in the following tables.
(§2) The pre-emergence tests were conducted by the following procedure. Topsoil was sieved to pass through a 1.27 cm screen. Fertilizer was added to the topsoil and the mixture was then sterilized by heating. The topsoil mixture was placed in a pot and compacted to a depth of 1.0 to 1.25 cm from the top of the pot. Seeds of each of several monocotyledonous and dicotyledonous annual plant species were placed on top of the soil. Additional soil was subsequently placed over the seeds to level-fill the pot. A known amount of each test compound dissolved or suspended in an appropriate organic solvent was diluted with a 50:50 mix of acetone and water and applied to the surface of the soil. After treatment the plants were placed in a greenhouse where they received 0.64 cm of overhead irrigation. All subsequent watering consisted of a light overhead mist and/or subirrigation as needed for germination and growth. Tables 5 and 6 below relate to warm season plant species which were placed after pre-emergence treatment in a greenhouse with a 30/21° C. day/night temperature regime. Tables 7 and 8 below relates to cool season plant species placed after pre-emergence treatment in a greenhouse or growth chamber with an 18/13° C. day/night temperature regime.
(§3) Approximately 14 days after planting and treating, the plants were observed and herbicidal efficacy recorded as percent inhibition by comparison with untreated plants.
(§4) The plant species usually regarded as weeds which were utilized in the tests are identified in the tables below according to the following legend, in which “d” indicates a dicotyledonous species and “m” a monocotyledonous species. All monocotyledonous species included in the tests herein are grasses.

SOLNI (black nightshade) = test: Pre-emergence herbicidal activity, warm season; format: in vivo, Solanum nigrum; conditions: GR80 = lowest tested rate (300, 100, 30, 10 g/ha) with 80% or greater inhibition; approx. 14 days after treating; 30/21° C.
In short: (§5)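 Seeds sown in sterilised fertilised topsoil received surface-applied compound in 50:50 acetone/water, typically at 300, 100, 30 and 10 g/ha, then greenhouse-grown at 30/21° C (warm-season species) or 18/13° C (cool-season species). Percent inhibition versus untreated plants was scored at about 14 days, giving GR80; an asterisk marks activity short of 80% at the top rate.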

[2] = test system: PANMI (wild proso millet); test: Pre-emergence herbicidal activity, warm season; format: in vivo, Panicum miliaceum; conditions: GR80 = lowest tested rate (300, 100, 30, 10 g/ha) with 80% or greater inhibition; approx. 14 days after treating; 30/21° C.
In short: (§6)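 Seeds were sown in sterilized, fertilized topsoil, covered, and the soil surface was sprayed with compound in 50:50 acetone/water at 300, 100, 30 and 10 g/ha. Pots were held at 30/21 °C day/night (PANMI, DIGSA) or 18/13 °C (ALOMY, POLCO). GR80 came from percent inhibition versus untreated plants at about 14 days.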

ALOMY (blackgrass) = test: Pre-emergence herbicidal activity, cool season; format: in vivo, Alopecurus myosuroides; conditions: GR80 = lowest tested rate (300, 100, 30, 10 g/ha) with 80% or greater inhibition; approx. 14 days after treating; 18/13° C.
In short: as §6

AMARE (redroot pigweed) = test: Pre-emergence herbicidal activity, warm season; format: in vivo, Amaranthus retroflexus; conditions: GR80 = lowest tested rate (300, 100, 30, 10 g/ha) with 80% or greater inhibition; approx. 14 days after treating; 30/21° C.
In short: as §5

[3] = test system: SORHA (johnsongrass (seedling)); test: Pre-emergence herbicidal activity, warm season; format: in vivo, Sorghum halepense; conditions: GR80 = lowest tested rate (300, 100, 30, 10 g/ha) with 80% or greater inhibition; approx. 14 days after treating; 30/21° C.
In short: (§7)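 GR80 values derive from percent inhibition relative to untreated plants, read roughly 14 days after sowing and pre-emergence soil-surface treatment (compound in 50:50 acetone/water; rates typically 10, 30, 100, 300 g/ha). Warm-season weeds grew at 30/21° C day/night, cool-season ones at 18/13° C; an asterisk marks activity without reaching 80% at the highest rate.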

[4] = test system: AGSST (creeping bentgrass); test: Pre-emergence herbicidal activity, cool season; format: in vivo, Agrostis stolonifera; conditions: GR80 = lowest tested rate (300, 100, 30, 10 g/ha) with 80% or greater inhibition; approx. 14 days after treating; 18/13° C.
In short: as §5

STEME (common chickweed) = test: Pre-emergence herbicidal activity, cool season; format: in vivo, Stellaria media; conditions: lowest tested rate with 80% or greater inhibition; rates 300, 100, 30, 10 g/ha; about 14 days
In short: as §5

SORVU (shattercane) = test: Pre-emergence herbicidal activity, warm season; format: in vivo, Sorghum vulgare; conditions: GR80 = lowest tested rate (300, 100, 30, 10 g/ha) with 80% or greater inhibition; approx. 14 days after treating; 30/21° C.
Description: as §1, §2, §3, §4

POROL (common purslane) = test: Pre-emergence herbicidal activity, warm season; format: in vivo, Portulaca oleracea; conditions: GR80 = lowest tested rate (300, 100, 30, 10 g/ha) with 80% or greater inhibition; approx. 14 days after treating; 30/21° C.
In short: as §5

[5] = test system: LAMPU (purple deadnettle); test: Pre-emergence herbicidal activity, cool season; format: in vivo, Lamium purpureum; conditions: lowest tested rate with 80% or greater inhibition; rates 300, 100, 30, 10 g/ha; about 14 days
In short: as §5

LOLMG (annual ryegrass) = test: Pre-emergence herbicidal activity, cool season; format: in vivo, Lolium multiflorum; conditions: GR80 = lowest tested rate (300, 100, 30, 10 g/ha) with 80% or greater inhibition; approx. 14 days after treating; 18/13° C.
Description: as §1, §2, §3, §4

ECHCG (barnyardgrass) = test: Pre-emergence herbicidal activity, warm season; format: in vivo, Echinochloa crus-galli; conditions: GR80 = lowest tested rate (300, 100, 30, 10 g/ha) with 80% or greater inhibition; approx. 14 days after treating; 30/21° C.
In short: as §7

SINAR (wild mustard) = test: Pre-emergence herbicidal activity, cool season; format: in vivo, Sinapis arvensis; conditions: lowest tested rate with 80% or greater inhibition; rates 300, 100, 30, 10 g/ha; about 14 days
In short: as §5

POLCO (wild buckwheat) = test: Pre-emergence herbicidal activity, cool season; format: in vivo, Polygonum convolvulus; conditions: lowest tested rate with 80% or greater inhibition; rates 300, 100, 30, 10 g/ha; about 14 days
In short: as §6

[6] = test system: VERPE (creeping speedwell); test: Pre-emergence herbicidal activity, cool season; format: in vivo, Veronica persicaria; conditions: lowest tested rate with 80% or greater inhibition; rates 300, 100, 30, 10 g/ha; about 14 days
In short: as §5

SETFA (giant foxtail) = test: Pre-emergence herbicidal activity, warm season; format: in vivo, Setaria faberi; conditions: GR80 = lowest tested rate (300, 100, 30, 10 g/ha) with 80% or greater inhibition; approx. 14 days after treating; 30/21° C.
In short: as §7

[7] = test system: GALAP (catchweed bedstraw); test: Pre-emergence herbicidal activity, cool season; format: in vivo, Galium aparine; conditions: lowest tested rate with 80% or greater inhibition; rates 300, 100, 30, 10 g/ha; about 14 days
In short: as §5

SASKR (russian thistle) = test: Pre-emergence herbicidal activity, cool season; format: in vivo, Salsola kali; conditions: lowest tested rate with 80% or greater inhibition; rates 300, 100, 30, 10 g/ha; about 14 days
In short: as §5

DIGSA (large crabgrass) = test: Pre-emergence herbicidal activity, warm season; format: in vivo, Digitaria sanguinalis; conditions: GR80 = lowest tested rate (300, 100, 30, 10 g/ha) with 80% or greater inhibition; approx. 14 days after treating; 30/21° C.
In short: as §6

SETVI (green foxtail) = test: Pre-emergence herbicidal activity, cool season; format: in vivo, Setaria viridis; conditions: GR80 = lowest tested rate (300, 100, 30, 10 g/ha) with 80% or greater inhibition; approx. 14 days after treating; 18/13° C.
In short: as §5

[8] = test system: CHEAL (common lambsquarters); test: Pre-emergence herbicidal activity, warm season; format: in vivo, Chenopodium album; conditions: GR80 = lowest tested rate (300, 100, 30, 10 g/ha) with 80% or greater inhibition; approx. 14 days after treating; 30/21° C.
In short: as §5

BROTE (downy brome) = test: Pre-emergence herbicidal activity, cool season; format: in vivo, Bromus tectorum; conditions: GR80 = lowest tested rate (300, 100, 30, 10 g/ha) with 80% or greater inhibition; approx. 14 days after treating; 18/13° C.
Description: as §1, §2, §3, §4

[9] = test system: BRAPP (broadleaf signalgrass); test: Pre-emergence herbicidal activity, warm season; format: in vivo, Brachiaria platyphylla; conditions: GR80 = lowest tested rate (300, 100, 30, 10 g/ha) with 80% or greater inhibition; approx. 14 days after treating; 30/21° C.
In short: as §7

PANDI (fall panicum) = test: Pre-emergence herbicidal activity, warm season; format: in vivo, Panicum dichotomiflorum; conditions: GR80 = lowest tested rate (300, 100, 30, 10 g/ha) with 80% or greater inhibition; approx. 14 days after treating; 30/21° C.
Description: as §1, §2, §3, §4

| SMILES | Pre-emergence activity (GR80) CIRAR [1] [g/ha] | Pre-emergence activity (GR80) PANMI [2] [g/ha] | Pre-emergence activity (GR80) ALOMY (ALOMY (blackgrass)) [g/ha] | Pre-emergence activity (GR80) AGSST [4] [g/ha] | Pre-emergence activity GR80, STEME (STEME (common chickweed)) | Pre-emergence activity (GR80) POROL (POROL (common purslane)) [g/ha] | Pre-emergence activity GR80, LAMPU [5] | Pre-emergence activity GR80, SINAR (SINAR (wild mustard)) | Pre-emergence activity GR80, POLCO (POLCO (wild buckwheat)) | Pre-emergence activity GR80, VERPE [6] [g/ha] | Pre-emergence activity (GR80) SETFA (SETFA (giant foxtail)) [g/ha] | Pre-emergence activity GR80, GALAP [7] | Pre-emergence activity GR80, SASKR (SASKR (russian thistle)) | Pre-emergence activity (GR80) SETVI (SETVI (green foxtail)) [g/ha] | further results |
| --- | --- | --- | --- | --- | --- | --- | --- | --- | --- | --- | --- | --- | --- | --- | --- |
| CN(C(=O)n1cnc(S(=O)(=O)C(F)F)n1)C1CCCCC1 [Example 32] | 300 | 300 | 300 | 300 | 300 g/ha | 100 | [empty] | 100 g/ha | [empty] | 300 | 300 | 100 g/ha | [empty] | 100 | Pre-emergence activity (GR80) SOLNI (SOLNI (black nightshade)): 300 g/ha; Pre-emergence activity (GR80) AMARE (AMARE (redroot pigweed)): 300 g/ha; Pre-emergence activity (GR80) SORHA [3]: 30 g/ha; Pre-emergence activity (GR80) SORVU (SORVU (shattercane)): 300 g/ha; Pre-emergence activity (GR80) LOLMG (LOLMG (annual ryegrass)): 300 g/ha; Pre-emergence activity (GR80) ECHCG (ECHCG (barnyardgrass)): 300 g/ha; Pre-emergence activity (GR80) DIGSA (DIGSA (large crabgrass)): 300 g/ha; Pre-emergence activity (GR80) CHEAL [8]: 300 g/ha |
| CON(C)C(=O)n1cnc(S(=O)(=O)C(F)F)n1 [Example 34] |  |  |  |  | [empty] |  | 300 g/ha | 300 g/ha | 300 g/ha | 300 |  | [empty] | 300 g/ha | 300 | Pre-emergence activity (GR80) BROTE (BROTE (downy brome)): 300 g/ha |
| CN(C(=O)n1cnc(S(=O)(=O)C(F)(F)Br)n1)C1CCCCC1 [Example 43] | 300 | 100 | 300 | 100 | 300 g/ha | 300 | 300 g/ha | [empty] | [empty] | 300 | 100 | 300 g/ha | [empty] | 300 | Pre-emergence activity (GR80) BRAPP [9]: 300 g/ha; Pre-emergence activity (GR80) PANDI (PANDI (fall panicum)): 100 g/ha |
